Values quoted from earlier work in patent US11571411B2, “Use of a bisamide derivative of malonic acid for treating allergic and other diseases in humans and animals” (PHARMENTERPRISES ALLERGY LLC, priority 2018, dated 2023).

Experiments:
[1] = in vivo; cited from earlier work
H3 receptor = target: T1, H3 receptor (Homo sapiens, UniProt Q9Y5N1); details: humans, topical administration; cited from earlier work
T1 construct: host or cells: human volunteers (nasal mucosa, in vivo)
T1 sequence (Q9Y5N1 whole entry): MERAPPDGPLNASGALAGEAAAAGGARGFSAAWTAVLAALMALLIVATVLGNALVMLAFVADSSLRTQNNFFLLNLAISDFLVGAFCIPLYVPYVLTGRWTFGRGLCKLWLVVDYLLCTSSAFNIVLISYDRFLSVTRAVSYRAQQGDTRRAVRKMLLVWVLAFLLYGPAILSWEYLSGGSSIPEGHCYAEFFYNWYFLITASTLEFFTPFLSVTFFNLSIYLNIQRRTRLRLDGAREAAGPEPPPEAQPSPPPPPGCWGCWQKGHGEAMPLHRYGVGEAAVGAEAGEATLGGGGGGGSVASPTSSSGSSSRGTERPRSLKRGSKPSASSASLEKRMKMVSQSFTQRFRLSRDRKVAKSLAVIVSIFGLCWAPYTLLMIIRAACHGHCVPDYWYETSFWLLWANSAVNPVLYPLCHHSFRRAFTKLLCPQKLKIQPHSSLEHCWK

S=C(NC1CCCCC1)N1CCC(c2cnc[nH]2)CC1 [Thioperamide]
crossing of the blood-brain barrier [1]: cross the blood-brain barrier
effect on nasal blockage induced by R-alpha-methylhistamine (H3 receptor): reduced
